In ChEMBL document CHEMBL1144953, “Anti-androgens with full antagonistic activity toward human prostate tumor LNCaP cells with mutated androgen receptor” (Bioorg Med Chem Lett, 2003):
pKd: −log10 of the molar value.

Each compound was assayed against T1, Androgen receptor (Homo sapiens, UniProt P10275) (assay: Dissociation constant against GST-hARLBD was measured in SC-3 cell by using [3H]testosterone as radioligand).
T1 sequence (P10275 whole entry): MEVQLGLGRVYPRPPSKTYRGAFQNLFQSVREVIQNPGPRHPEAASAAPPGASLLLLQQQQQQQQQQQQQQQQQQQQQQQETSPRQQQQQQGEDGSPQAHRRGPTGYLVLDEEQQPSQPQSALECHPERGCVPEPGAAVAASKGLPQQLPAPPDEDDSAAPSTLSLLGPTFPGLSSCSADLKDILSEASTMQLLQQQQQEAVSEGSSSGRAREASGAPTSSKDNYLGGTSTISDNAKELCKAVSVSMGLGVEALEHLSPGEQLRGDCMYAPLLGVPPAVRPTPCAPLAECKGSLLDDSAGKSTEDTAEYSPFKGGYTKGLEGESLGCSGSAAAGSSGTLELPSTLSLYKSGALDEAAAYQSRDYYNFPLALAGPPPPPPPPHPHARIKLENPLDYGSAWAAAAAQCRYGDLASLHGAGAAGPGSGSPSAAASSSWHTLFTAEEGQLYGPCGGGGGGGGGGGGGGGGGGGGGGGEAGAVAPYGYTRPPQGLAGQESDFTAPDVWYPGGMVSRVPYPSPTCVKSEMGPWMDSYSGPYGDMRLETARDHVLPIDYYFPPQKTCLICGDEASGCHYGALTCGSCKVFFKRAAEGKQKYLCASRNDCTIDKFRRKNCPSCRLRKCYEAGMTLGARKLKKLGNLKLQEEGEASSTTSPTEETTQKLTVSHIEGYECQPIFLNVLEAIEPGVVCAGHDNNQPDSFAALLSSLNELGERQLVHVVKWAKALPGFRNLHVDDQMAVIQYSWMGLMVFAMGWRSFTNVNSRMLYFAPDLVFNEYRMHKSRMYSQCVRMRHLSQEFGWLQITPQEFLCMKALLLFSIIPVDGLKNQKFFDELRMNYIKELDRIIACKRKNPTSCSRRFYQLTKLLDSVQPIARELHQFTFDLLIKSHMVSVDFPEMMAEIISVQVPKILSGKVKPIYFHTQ
Type: cell-based

| Structure (SMILES) | pKd |
| --- | --- |
| O=C1ON=C(c2ccc(F)cc2)/C1=C/c1ccc(N2CCCC2)cc1 | 8.85 |
| CCCCN(CCCC)c1ccc(/C=C2\C(=O)ON=C2c2ccccc2)cc1 | 8.85 |
| O=C1ON=C(c2ccc(O)cc2)/C1=C/c1ccc(N2CCCC2)cc1 | 8.85 |
| O=C1ON=C(c2ccccc2F)/C1=C/c1ccc(N2CCCC2)cc1 | 8.85 |
